Test results: patent US20100056516A1 (priority 2006, published 2010)

Key:
HXB2 virus = experiment: microbe, parasite or virus in culture; assay type: cell-based, HIV; conditions: Human immunodeficiency virus 1, HXB2, HeLaP4-2, read-out: antiviral IC50 (SCIA-B)
In short: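 Single-cycle infectivity assay in HeLa P4-2 cells measuring inhibition of acute HIV infection, using HXB2 virus.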

HIV integrase = HIV integrase (Human immunodeficiency virus type 1 group M subtype B, UniProt P04585); experiment: integrase strand transfer assay (STA); assay type: biochemical; conditions: integrase strand transfer; read-out: IC50 in the STA assay

| SMILES | IC50 (HXB2 virus) [µM] | IC50 (HIV integrase) [µM] |
| --- | --- | --- |
| NCc1cccc(-c2cccc(-c3ccnc4c3c(O)cc(=O)n4O)c2)c1 [Example 227, 5-[3′-(aminomethyl)biphenyl-3-yl]-1,4-dihydroxy-1,8-naphthyridin-2-(1H)-one] | < 100 | < 50 |
| NCc1ccc(-c2cccc(-c3ccnc4c3c(O)cc(=O)n4O)c2)cc1 [Example 228, 5-[4′-(aminomethyl)biphenyl-3-yl]-1,4-dihydroxy-1,8-naphthyridin-2(1H)-one] | < 100 | < 50 |
| Cc1cc(C)n(-c2cccc(-c3ccnc4c3c(O)cc(=O)n4O)c2)n1 [Example 229, 5-[3-(3,5-dimethyl-1H-pyrazol-1-yl)phenyl]-1,4-dihydroxy-1,8-naphthyridin-2(1H)-one] | < 100 | < 50 |
| NCc1ccc(-c2cccc(Cc3cc(=O)n(O)c4ncccc34)c2)cc1 [Example 232, 4-{[4′-(aminomethyl)biphenyl-3-yl]methyl}-1-hydroxy-1,8-naphthyridin-2(1H)-one] | < 100 | < 50 |
| Nc1cccc(-c2cccc(Cc3cc(=O)n(O)c4ncccc34)c2)c1 [Example 233, 4-[(3′-aminobiphenyl-3-yl)methyl]-1-hydroxy-1,8-naphthyridin-2(1H)-one] | < 100 | < 50 |
| Nc1ccc(-c2cccc(Cc3cc(=O)n(O)c4ncccc34)c2)cc1 [Example 234, 4-[(4′-aminobiphenyl-3-yl)methyl]-1-hydroxy-1,8-naphthyridin-2(1H)-one] | < 100 | < 50 |
| O=c1cc(-c2cccc(O)c2)c2cccnc2n1O [Example 237, 1-hydroxy-4-(3-hydroxyphenyl)-1,8-naphthyridin-2(1H)-one] | < 100 | < 50 |
| NC1(c2cccc(-c3ccc(-c4cc(=O)n(O)c5ncccc45)cc3)c2)CC1 [Example 238, 4-[3′-(1-aminocyclopropyl)biphenyl-4-yl]-1-hydroxy-1,8-naphthyridin-2(1H)-one] | < 100 | < 50 |
| Nc1ccc(Cc2ccc(-c3cc(=O)n(O)c4ncccc34)cc2)cc1 [Example 239, 4-[4-(4-aminobenzyl)phenyl]-1-hydroxy-1,8-naphthyridin-2(1H)-one] | < 100 | < 50 |
| CCOC(=O)c1c(CCc2ccccc2)c2cccnc2n(O)c1=O [Example 240, ethyl 1-hydroxy-2-oxo-4-(2-phenylethyl)-1,2-dihydro-1,8-naphthyridine-3-carboxylate] | < 100 | < 50 |
| CCOC(=O)c1c(-c2ccc(-c3ccc(CN)cc3)cc2)c2cccnc2n(O)c1=O [Example 243, Ethyl 4-[4′-(aminomethyl)biphenyl-4-yl]-1-hydroxy-2-oxo-1,2-dihydro-1,8-naphthyridine-3-carboxylate] | < 100 | < 50 |
| O=c1cc(-c2cn[nH]c2)c2cccnc2n1O [Example 244, 1-Hydroxy-4-(pyrazol-4-yl)-1,8-naphthyridin-2-(1H)-one] | < 100 | < 50 |
| O=c1cc(-c2cnc3[nH]ccc3c2)c2cccnc2n1O [Example 245, 1-hydroxy-4-(1H-pyrrolo[2,3-b]pyridin-5-yl)-1,8-naphthyridin-2(1H)-one bistrifluoroacetate] | < 100 | < 50 |
| O=c1cc(C2=Cc3ccccc3CC2)c2cccnc2n1O [Example 246, 4-(3,4-dihydronaphthalen-2-yl)-1-hydroxy-1,8-naphthyridin-2(1H)-one] | < 100 | < 50 |
| O=C(c1cc(=O)n(O)c2ncccc12)N1CCc2ccccc2C1 [Example 247, 4-(3,4-dihydroisoquinolin-2(1H)-ylcarbonyl)-1-hydroxy-1,8-naphthyridin-2(1H)-one] | < 100 | < 50 |
| CCOC(=O)c1c(-c2cccc(-c3ccc(CN)cc3)c2)c2cc(-c3ccccc3OC)cnc2n(O)c1=O [Example 248, ethyl 4-[4′-(aminomethyl)biphenyl-3-yl]-1-hydroxy-6-(2-methoxyphenyl)-2-oxo-1,2-dihydro-1,8-naphthyridine-3-carboxylate] | < 100 | < 50 |
| CCOC(=O)c1c(O)c2c(Cc3cccc(-c4cccc(CN)c4)c3)ccnc2n(O)c1=O [Example 249, ethyl 5-{[3′-(aminomethyl)biphenyl-3-yl]methyl}-1,4-dihydroxy-2-oxo-1,2-dihydro-1,8-naphthyridine-3-carboxylate] | < 100 | < 50 |

| SMILES | IC50 (HXB2 virus) [µM] | IC50 (HIV integrase) [µM] |
| --- | --- | --- |
| Nc1cnc2c(c1)c(O)c(-c1ccccc1)c(=O)n2O [Example 250, 6-amino-1,4-dihydroxy-3-phenyl-1,8-naphthyridin-2(1H)-one] | < 100 | < 50 |
| Nc1cccc(-c2ccc3c(c2)CN(c2cc(=O)n(O)c4ncccc24)CC3)c1 [Example 251, 4-[7-(3-aminophenyl)-3,4-dihydroisoquinolin-2(1H)-yl]-1-hydroxy-1,8-naphthyridin-2(1H)-one] | < 100 | < 50 |
| NCc1cccc(-c2ccc3c(c2)CN(c2cc(=O)n(O)c4ncccc24)CC3)c1 [Example 252, 4-[7-(3-aminomethylphenyl)-3,4-dihydroisoquinolin-2(1H)-yl]-1-hydroxy-1,8-naphthyridin-2(1H)-one] | < 100 | < 50 |
| O=c1cc(N2CCc3ccc(-c4ccncc4)cc3C2)c2cccnc2n1O [Example 253, 1-hydroxy-4-(7-pyridin-4-yl-3,4-dihydroisoquinolin-2(1H)-yl)-1,8-naphthyridin-2(1H)-one] | < 100 | < 50 |
| Nc1ccc(-c2ccc3c(c2)CN(c2cc(=O)n(O)c4ncccc24)CC3)cc1 [Example 254, 4-[7-(4-aminophenyl)-3,4-dihydroisoquinolin-2(1H)-yl]-1-hydroxy-1,8-naphthyridin-2(1H)-one] | < 100 | < 50 |
| O=c1cc(N2Cc3ccc(-c4ccccc4)cc3C2)c2cccnc2n1O [Example 256, 1-hydroxy-4-(5-phenyl-1,3-dihydro-2H-isoindol-2-yl)-1,8-naphthyridin-2(1H)-one] | < 100 | < 50 |
| CCOC(=O)c1c(N2CCc3ccc(-c4ccc(F)cc4)cc3C2)c2cccnc2n(O)c1=O [Example 258, ethyl 4-[7-(4-fluorophenyl)-3,4-dihydroisoquinolin-2(1H)-yl]-1-hydroxy-2-oxo-1,2-dihydro-1,8-naphthyridine-3-carboxylate] | < 100 | > 50 |
| CCOC(=O)c1c(N2CCc3ccc(-c4cccc(F)c4)cc3C2)c2cccnc2n(O)c1=O [Example 259, ethyl 4-[7-(3-fluorophenyl)-3,4-dihydroisoquinolin-2(1H)-yl]-1-hydroxy-2-oxo-1,2-dihydro-1,8-naphthyridine-3-carboxylate] | < 100 | > 50 |
| O=C(NCCc1ccccc1)c1ccc2c(c1)CN(c1cc(=O)n(O)c3ncccc13)CC2 [Example 260, 4-[7-(phenylethylaminocarbonyl)-3,4-dihydroisoquinolin-2(1H)-yl]-1-hydroxy-1,8-naphthyridin-2(1H)-one] | < 100 | < 50 |
| O=C(NCc1ccccc1)c1ccc2c(c1)CCN(c1cc(=O)n(O)c3ncccc13)C2 [Example 261, 4-[6-(benzylaminocarbonyl)-3,4-dihydroisoquinolin-2(1H)-yl]-1-hydroxy-1,8-naphthyridin-2(1H)-one] | < 100 | < 50 |
| CCOC(=O)c1c(-c2ccc(CCc3ccncc3)cc2)c2cccnc2n(O)c1=O [Example 262, Ethyl 4-[4-(2-pyridin-4-ylethyl)phenyl]-hydroxy-2-oxo-1,2-dihydro-1,8-naphthyridin-3-carboxylate] | < 100 | < 50 |
| CCOC(=O)c1c(-c2cc(CCc3ccccc3F)cc(-c3ccc(CN)cc3)c2)c2cccnc2n(O)c1=O [Example 263, ethyl 4-[4′-aminomethyl-5-(2-fluorophenethyl)biphenyl-3-yl]1-hydroxy-2-oxo-1,2-dihydro-1,8-naphthyridine-3-carboxylate] | < 100 | < 50 |
| CCOC(=O)c1c(-c2ccc(CCc3ccc(N)cc3)cc2)c2cccnc2n(O)c1=O [Example 264, ethyl 4-{4-[2-(4-aminophenyl)ethyl]phenyl}1-hydroxy-2-oxo-1,2,-dihydro-1,8-naphthyridin-3-carboxylate] | < 100 | < 50 |
| O=c1c2ccccc2c2cccnc2n1O [Example 265, 5-Hydroxybenzo[c]-1,8-naphthyridin-6(5B)-one] | < 100 | < 50 |
| CNC(=O)c1ccc2c(=O)n(O)c3ncccc3c2c1 [Example 266, 5-Hydroxy-N-methyl-6-oxo-5,6-dihydrobenzo[c]-1,8-naphthyridine-9-carboxamide] | < 100 | < 50 |
| O=c1c2ccc(-c3ccccc3)cc2c2cccnc2n1O [Example 267, 5-Hydroxy-9-phenylbenzo[c]-1,8-naphthyridin-6(5.H)-one] | < 100 | < 50 |
| O=c1c2cc(-c3ccccc3)ccc2c2cccnc2n1O [Example 268, 5-Hydroxy-8-phenylbenzo[c]-1,8-naphthyridin-6(5H)-one] | < 100 | < 50 |
